# Experimental data taken from patent US20230212164A1, “ANNULATED 2-AMINO-3-CYANO THIOPHENES AND DERIVATIVES FOR THE TREATMENT OF CANCER” (BOEHRINGER INGELHEIM INTERNATIONAL GMBH, priority 2020, published 2023).
# Like-named read-outs stand apart in the source and are kept apart here.
# What was measured:
# [1] = biological target: T1, protein-protein interaction between SOS1 and KRAS G12C (Homo sapiens, UniProt P01116, C118S/C51S/C80L/G12C); assay: KRAS::SOS1 AlphaScreen binding assay
# T1 construct: His6 (N)
# Protocol: KRAS::SOS1 AlphaScreen Binding Assay
# Assay buffer: • 1×PBS • 0.1% BSA • 0.05% Tween 20
# AlphaLISA Glutathione Acceptor Beads and AlphaScreen Streptavidin Donor Beads are mixed in assay buffer at a concentration of 10 μg/mL (final assay concentration) each prior to use and kept at room temperature.
# Compounds are diluted to a final start concentration of 100 μM and are tested in duplicate. […] For compound a start concentration of 100 μM, 150 nL of compound solution is transferred per well in 11 concentrations in duplicate with serial 1:5 dilutions.
# The assay is run using a fully automated robotic system in a darkened room below 100 Lux. 10 μL of KRAS::SOS1 GDP mix is added into columns 1-24 to the 150 nL of compound solution (final dilution in the assay 1:100, final DMSO concentration 1%).
# After 30 minutes incubation time 5 μL of bead mix is added into columns 1-23. Plates are kept at room temperature in a darkened incubator. After further 60 minutes incubation, the signal is measured using a PerkinElmer Envision HTS Multilabel Reader using the AlphaScreen specifications from PerkinElmer. Each plate contains the following controls: • diluted DMSO+KRAS::SOS1 GDP mix+bead mix • diluted DMSO+KRAS::SOS1 GDP mix
# IC50 values are calculated and analyzed using a 4 parametric logistic model.
# [2] = biological target: KRASG12-dependent Ba/F3 cells (Homo sapiens, UniProt P01116, G12C, cells depend on it); assay: Ba/F3 cell model proliferation assay (AlamarBlue, 72 h); assay type: cell-based; conditions: Ba/F3 cells transduced with KRASG12C, read-out: IC50 Ba/F3 KRASG12C
# Protocol: Ba/F3 Cell Model Generation and Proliferation Assay
# Plasmids containing KRASG12 mutants were obtained from GeneScript. To generate KRASG12-dependent Ba/F3 models, Ba/F3 cells were transduced with retroviruses containing vectors that harbor KRASG12 isoforms. Platinum-E cells (Cell Biolabs) were used for retrovirus packaging. Retrovirus was added to Ba/F3 cells. To ensure infection, 4 μg/mL polybrene was added and cells were spinfected. […] Cells with an infection efficiency of 10% to 20% were further cultivated and puromycin selection with 1 μg/mL was initiated. As a control, parental Ba/F3 cells were used to show selection status. Selection was considered successful when parental Ba/F3 cells cultures died. To evaluate the transforming potential of KRASG12 mutations, the growth medium was no longer supplemented with IL-3. Ba/F3 cells harboring the empty vector were used as a control. Approximately ten days before conducting the experiments, puromycin was left out.
# All treatments were performed in technical duplicates. The assay is run using a fully automated robotic system. Treated cells were incubated for 72 h at 37° C. with 5% CO2.
# AlamarBlue™ (ThermoFisher), a viability stain, was added and fluorescence measured in the PerkinElmer Envision HTS Multilabel Reader.
# [3] = test system: pERK (Thr202/Tyr204) in NCI-H358 (KRAS G12C mutation); assay: ERK phosphorylation assay 1 (AlphaLISA SureFire Ultra p-ERK1/2)
# Protocol: ERK Phosphorylation Assay
# Materials Used for the Assay:
# AlphaLISA SureFire Ultra p-ERK1/2 (Thr202/Tyr204) Assay Kit (ALSU-PERK-A500)
# The cells are incubated for 1 h at room temperature and then incubated overnight in an incubator at 37° C. and 5% CO2 in a humidified atmosphere. 60 nL compound solution (10 mM DMSO stock solution) is then added using a Labcyte Echo 550 device. […] After 20 minutes of incubation at room temperature with shaking, 6 μL of each lysate sample is transferred to a 384-well Proxiplate and analyzed for pERK (Thr202/Tyr204) with the AlphaLISA SureFire Ultra pERK1/2 (Thr202/Tyr204) Assay Kit. 3 μL Acceptor Mix and 3 μL Donor Mix are added under subdued light and incubated for 2 h at room temperature in the dark, before the signal is measured on a PerkinElmer Envision HTS Multilabel Reader. The raw data were imported into and analyzed with the Boehringer Ingelheim proprietary software MegaLab (curve fitting based on the program PRISM, GraphPad Inc.).
# [4] = Homo sapiens, NCI-H358, read-out: IC50 H358 pERK
# Chain of KRASG12-dependent Ba/F3 cells (P01116 whole entry G12C): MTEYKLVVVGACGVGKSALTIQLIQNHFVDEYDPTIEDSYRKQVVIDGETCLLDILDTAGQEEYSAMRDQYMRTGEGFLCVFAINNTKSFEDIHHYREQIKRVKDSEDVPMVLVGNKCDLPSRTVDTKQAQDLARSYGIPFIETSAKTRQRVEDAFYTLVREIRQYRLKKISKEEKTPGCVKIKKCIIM
# T1 sequence (P01116 1-169 isoform P01116-2 G12C/C51S/C80L/C118S): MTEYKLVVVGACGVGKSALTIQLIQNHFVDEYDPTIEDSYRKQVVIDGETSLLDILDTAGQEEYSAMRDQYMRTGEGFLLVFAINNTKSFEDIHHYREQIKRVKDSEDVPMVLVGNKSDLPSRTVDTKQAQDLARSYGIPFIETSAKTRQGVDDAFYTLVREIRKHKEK
Structure (SMILES),IC50 ([1]; Table 36),GI50 [2],"IC50 [3, 4]",IC50 ([1]; Table 40),"IC50 ([3]; read-out: IC50 H358 pERK, ERK phosphorylation assay 1 (values not marked with *), NCI-H358)"
C=CC(=O)N1CCN(C2CN(c3cc(-c4noc([C@@]5(C)CCCc6sc(N)c(C#N)c65)n4)nc(N4CCCN(C)C[C@@H]4C)n3)C2)CC1 [Ia-100],84 nM,2200 nM,–,–,–
C=CC(=O)N1CCC2(C1)CN(c1cc(-c3noc([C@@]4(C)CCCc5sc(N)c(C#N)c54)n3)cc(N3CCCN(C)C[C@@H]3C)n1)C2 [Ia-95],46 nM,946 nM,–,–,–
C=CC(=O)N1CCCN(c2cc(-c3noc([C@@]4(C)CCCc5sc(N)c(C#N)c54)n3)nc(O[C@@H](C)[C@@H]3CCCN3C)n2)CC1 [Ia-52],1.8 nM,18.4 nM,–,–,–
C=CC(=O)N1CCN(c2cc(-c3noc([C@@]4(C)CCCc5sc(N)c(C#N)c54)n3)nc(N3CCCN(CC4(C)COC4)C[C@@H]3C)n2)CC1 [Ia-41],1.8 nM,10.2 nM,–,–,–
C=CC(=O)N1CCN(c2cc(-c3noc([C@@]4(C)CCCc5sc(N)c(C#N)c54)n3)nc(N3CCCN([C@@H]4CCOC4)C[C@@H]3C)n2)CC1 [Ia-43],1.7 nM,2.7 nM,–,–,–
C=CC(=O)N1C[C@@H]2CN(c3cc(-c4noc(C5(C)CCCc6sc(N)c(C#N)c65)n4)nc(N4CCN(C5CCCC5)CC4)c3)[C@@H]2C1 (some centres unmarked) [Ia-9],216 nM,–,54.6 nM,–,–
C=CC(=O)N1CCN(c2cc(-c3ccncc3)nc(-c3noc(C4(C)CCCc5sc(N)c(C#N)c54)n3)c2)CC1 (centres unmarked) [Ia-33],442 nM,–,50.4 nM,–,–
C=CC(=O)N1CCN(c2cc(-c3noc(C4(C)CCCc5sc(N)c(C#N)c54)n3)nc(N3CCN(C4CCCC4)CC3)c2)CC1 (centres unmarked) [Ia-122],71 nM,–,19.3 nM,–,–
C=CC(=O)N1CCN(c2cc(-c3noc(C4(C)CCCc5sc(N)c(C#N)c54)n3)nc(N3CCNCC3)c2)CC1 (centres unmarked) [Ia-170],–,–,269 nM,87 nM,–
C=CC(=O)N1CC2(CCN(c3cc(-c4noc([C@@]5(C)CCCc6sc(N)c(C#N)c65)n4)nc(N4CCCN(C)C[C@@H]4C)n3)C2)C1 [Ia-94],77 nM,2290 nM,–,–,–
C=CC(=O)N1CCN(c2cc(-c3noc(C4(C)CCC(C)c5sc(N)c(C#N)c54)n3)nc(N3CCN(CC4CC4)CC3)c2)CC1 (centres unmarked) [Ia-106],180 nM,–,25.2 nM,–,–
C=CC(=O)N1CCN(c2cc(-c3noc(C4(C)CCCc5sc(N)c(C#N)c54)n3)nc(N3CC[C@H](N4CCCC4)C3)c2)CC1 (some centres unmarked) [Ia-20],130 nM,–,20.7 nM,–,–
C=CC(=O)N1CCN(c2cc(-c3noc(C4(C)CCCc5sc(N)c(C#N)c54)n3)nc(N3CCN4CCC[C@@H]4C3)c2)CC1 (some centres unmarked) [Ia-153],31 nM,–,11.6 nM,–,–
C=CC(=O)N1CCC(Oc2cc(-c3noc(C4(C)CCCc5sc(N)c(C#N)c54)n3)nc(N3CCN(C)CC3)c2)CC1 (centres unmarked) [Ia-88],71 nM,381 nM,–,–,–
C=CC(=O)N1CCC(Oc2cc(-c3noc(C4(C)CCCc5sc(N)c(C#N)c54)n3)nc(N3CCN(C4CCCC4)CC3)c2)CC1 (centres unmarked) [Ia-111],418 nM,–,92.5 nM,–,–
C=CC(=O)N1CCN(c2cc(-c3noc(C4(C)CCCc5sc(N)c(C#N)c54)n3)nc(N3C[C@@H](C)N(CC)[C@@H](C)C3)c2)CC1 (some centres unmarked) [Ia-21],51 nM,–,7.4 nM,–,–
C=CC(=O)N1CCN(c2cc(-c3noc(C4(C)CCCc5sc(N)c(C#N)c54)n3)nc(N3CCN(CC4CC4)CC3)c2)CC1 (centres unmarked) [Ia-146],50 nM,–,–,–,9.9 nM
C=CC(=O)N1CC2(CCN(c3cc(-c4noc(C5(C)CCCc6sc(N)c(C#N)c65)n4)nc(N4CCN(C)CC4)c3)C2)C1 (centres unmarked) [Ia-143],340 nM,–,1330 nM,–,–
C=CC(=O)N1CCN(c2cc(-c3noc([C@@]4(C)CCCc5sc(N)c(C#N)c54)n3)nc(OC[C@@H]3CCCN3C)n2)CC1 [Ia-47],3 nM,186 nM,–,–,–
C=CC(=O)N1CCC(Oc2cc(-c3noc(C4(C)CCCc5sc(N)c(C#N)c54)n3)nc(N3CCC(N4CCOCC4)CC3)c2)CC1 (centres unmarked) [Ia-30],103 nM,–,20.1 nM,–,–
C=CC(=O)N1CCC(Oc2cc(-c3noc([C@@]4(C)CCCc5sc(N)c(C#N)c54)n3)nc(N3CCN(C)CC3)c2)CC1 [Ia-91],49 nM,–,11.6 nM,–,–
C=CC(=O)N1CCN(c2cc(-c3noc(C4(C)CCCc5sc(N)c(C#N)c54)n3)nc(N3CCC(N4CCCCC4)C3)c2)CC1 (centres unmarked) [Ia-22],40 nM,–,6.7 nM,–,–

Structure (SMILES),IC50 ([1]; Table 36),GI50 [2],"IC50 [3, 4]",IC50 ([1]; Table 40),"IC50 ([3]; read-out: IC50 H358 pERK, ERK phosphorylation assay 1 (values not marked with *), NCI-H358)"
C=CC(=O)N1CCN(c2cc(-c3noc(C4(C)CCCc5sc(N)c(C#N)c54)n3)nc(N3CCC(N4CC[C@H](F)C4)CC3)c2)CC1 (some centres unmarked) [Ia-40],19 nM,–,5.3 nM,–,–
C=CC(=O)N1CCC(Oc2cc(-c3noc(C4(C)CCC(C)c5sc(N)c(C#N)c54)n3)nc(N3CCN(C)CC3)c2)CC1 (centres unmarked) [Ia-120],405 nM,–,111 nM,–,–
C=CC(=O)N1CC2CN(c3cc(-c4noc([C@@]5(C)CCCc6sc(N)c(C#N)c65)n4)nc(N4CCCN(C)C[C@@H]4C)n3)CC2C1 (some centres unmarked) [Ia-97],43 nM,967 nM,–,–,–
C=CC(=O)N1CCN(c2cc(-c3noc(C4(C)CCCc5sc(N)c(C#N)c54)n3)nc(N3CCC(N4CCCCC4)CC3)c2)CC1 (centres unmarked) [Ia-37],47 nM,–,12.3 nM,–,–
C=CC(=O)N1CCN(c2cc(-c3noc(C4(C)CCCc5sc(N)c(C#N)c54)n3)nc(N3CCC(N4CCCC4)CC3)c2)CC1 (centres unmarked) [Ia-36],24 nM,–,12.2 nM,–,–
C=CC(=O)N1CCN(c2cc(-c3noc([C@@]4(C)CCCc5sc(N)c(C#N)c54)n3)nc(N3CCCN(CCCOC)C[C@@H]3C)n2)CC1 [Ia-42],1.8 nM,–,2.8 nM,–,–
C=CC(=O)N1CCN(c2cc(-c3noc(C4(C)CCCc5sc(N)c(C#N)c54)n3)nc(N3CCN(C(C)C)CC3)c2)CC1 (centres unmarked) [Ia-110],76 nM,–,8.7 nM,–,–
C=CC(=O)N1CCCC(Oc2cc(-c3noc(C4(C)CCCc5sc(N)c(C#N)c54)n3)nc(N3CCN(C)CC3)c2)CC1 (centres unmarked) [Ia-145],377 nM,–,93.5 nM,–,–
C=CC(=O)N(C)c1cccc(-c2cc(-c3noc(C4(C)CCCc5sc(N)c(C#N)c54)n3)nc(N3CCN(C)CC3)c2)c1 (centres unmarked) [Ia-151],1190 nM,–,182 nM,–,–
C=CC(=O)N1CCN(c2cc(-c3noc(C4(C)CCCc5sc(N)c(C#N)c54)n3)nc(N3CCN(CC)CC3)c2)CC1C (centres unmarked) [Ia-107],198 nM,–,29.3 nM,–,–
C=CC(=O)N1CCN(c2cc(-c3noc(C4(C)CCCc5sc(N)c(C#N)c54)n3)cc(N3CCC(N4CCOCC4)CC3)c2)CC1 (centres unmarked) [Ia-32],255 nM,–,35.6 nM,–,–
C=CC(=O)N1CCN(c2cc(OCCCN(C)C)cc(-c3noc(C4(C)CCCc5sc(N)c(C#N)c54)n3)c2)CC1 (centres unmarked) [Ia-142],176 nM,–,36.4 nM,–,–
C=CC(=O)N1CCN(c2cc(-c3noc(C4(C)CCCc5sc(N)c(C#N)c54)n3)nc(N3CCC(N4CCC(F)C4)CC3)c2)CC1 (centres unmarked) [Ia-38],22 nM,–,5.8 nM,–,–
C=CC(=O)NCC1CN(c2cc(-c3noc(C4(C)CCCc5sc(N)c(C#N)c54)n3)nc(N3CCN(C)CC3)c2)C1 (centres unmarked) [Ia-109],943 nM,–,5990 nM,–,–
C=CC(=O)N1CCN(c2cc(-c3noc(C4(C)CCCc5sc(N)c(C#N)c54)n3)nc(N3CCN(C4COC4)CC3)c2)CC1 (centres unmarked) [Ia-18],364 nM,–,57.4 nM,–,–
C=CC(=O)N1CCN(c2cc(-c3noc(C4(C)CCCc5sc(N)c(C#N)c54)n3)nc(N3CCC(N4CCOCC4)CC3)c2)CC1 (centres unmarked) [Ia-29],48 nM,–,7.8 nM,–,–
C=CC(=O)N1CCN(c2cc(-c3noc(C4(C)CCCc5sc(N)c(C#N)c54)n3)nc(N3CCN(C(C)C)C(C)C3)c2)CC1 (centres unmarked) [Ia-150],71 nM,–,9.5 nM,–,–
C=CC(=O)N1CCN(c2cc(-c3noc(C4(C)CC(F)(F)Cc5sc(N)c(C#N)c54)n3)nc(N3CCN(C)CC3)c2)CC1 (centres unmarked) [Ia-113],730 nM,–,376 nM,–,–
C=CC(=O)N1CCN(c2cc(-c3noc(C4(C)CCCc5sc(N)c(C#N)c54)n3)nc(N3C[C@@H]4C[C@H]3CN4C3CCCC3)c2)CC1 (some centres unmarked) [Ia-115],63 nM,–,8.8 nM,–,–
C=CC(=O)N1CCN(c2cc(-c3noc(C4(C)CCCc5sc(N)c(C#N)c54)n3)nc(N3CCC(N4CCCC4)C3)c2)CC1 (centres unmarked) [Ia-23],47 nM,–,6.5 nM,–,–
C=CC(=O)N1CCN(c2cc(-c3noc(C4(C)CCC(C)c5sc(N)c(C#N)c54)n3)nc(N3CCN(C)CC3)c2)CC1C (centres unmarked) [Ia-104],635 nM,–,71.8 nM,–,–
